The values that follow come from patent publication US6576437B2, “Stimulus-inducible protein kinase complex and methods of use therefor” (Signal Pharmaceuticals, Inc., priority 1996, dated 2003).

Test [1] has as its target T1, IKK signalsome (Homo sapiens, UniProt O14920+O15111).
T1 construct: endogenous in cells; host or cells: HeLa / HeLa S3 cells stimulated with TNFα; anti-MKP-1 immunoprecipitate
In words: Inhibition of immunopurified IKK signalsome activity (32P incorporation into GST-IκBα(1-54)). Format: biochemical. To be noted: GST-IκBα(1-54) 0.56 μM, ATP 3 μM; for inhibition of IKK signalsome kinase (phosphorylation of GST-IκBα (1-54)): one hour at room temperature. The method, then: FIG. 9B is a graph illustrating the inhibition of phosphorylation of GST-IκBα (1-54) by IκBα(21-41) peptides. […] This assay only detects precipitated ^32P-labeled proteins, not ^32P-labeled peptides. Addition of the singly- or non-phosphorylated IκBα(21-41) peptides results in less phosphorylation of GST-IκBα (1-54) and apparent inhibition.
Inhibition of immunopurified IKK signalsome activity was measured by ^32P incorporation into GST-IκBα(1-54) in a discontinuous assay using the reaction conditions described above. The concentrations of GST-IκBα(1-54) and ATP used in the inhibition studies were 0.56 μM and 3 μM, respectively. Enzymatic reactions (32 μL) were carried out in wells of a 96 well assay plate for one hour at room temperature and terminated with the addition of trichloroacetic acid (TCA) (150 μL/well of 12.5% w/v). The subsequent 20 minute incubation with TCA precipitated the proteins but not peptides from solution. The TCA precipitate was collected on 96-well glass fiber plates (Packard) and washed 10 times with approximately 0.3 mL per well of Dulbecco's phosphate buffered saline pH 7.4 (Sigma) using a Packard Filtermate 196. Scintillation fluid (0.50 mL, MicroScint, Packard) was added to each well and the plate was analyzed for ^32P using a Packard TopCount scintillation counter. Less than 10% of ATP was turned over in the course of the assay reaction, ensuring that the kinetic data represented initial rate data. The inhibition constant of the P32, 36 peptide was determined by Dixon analysis (Dixon and Webb, In Enzymes (Academic Press: New York, ed. 3, 1979), pp. 350-51.

For test [2], the target named is T1, IKK signalsome. Kind of test: IKK signalsome activity in anti-MKP-1 immunoprecipitates from TNFα-stimulated HeLa S3 cells pretreated with inhibitor. Format: cell-based. Particulars: HeLa S3 cells pretreated 30 min with 15 μM prior to TNFα (20 ng/ml, 7 min). The procedure:
FIG. 8B illustrates the stimulus-dependent activation of IKK signalsome, which is blocked by TPCK. Anti-MKP-1 immunoprecipitates from cell extracts of HeLa S3 cells either stimulated for 7 min with TNFα (20 ng/ml, lane 2 and 6), IL-1 (10 ng/ml, lane 3), PMA (50 ng/ml, lane 4) or pretreated for 30 min with TPCK (15 μM, lane 7) prior to TNFα-induction were examined for IKK signalsome activity. GST IκBα 1-54 WT (4 μg) was used as a substrate.
For these studies, small scale immunoprecipitation were performed using two 150 mm plates of HeLa cells (one stimulated and one unstimulated). Whole cell lysates were diluted 4-fold with 2×Pull-Down Buffer (40 mM Tris pH 8.0, 500 mM NaCl, 0.1% NP-40, 6 mM EDTA, 6 mM EGTA, 10 mM β-glycerophosphate, 10 mM NaF, 10 mM PNPP, 300 μM Na3VO4, 1 mM benzamidine, 2 μM PMSF, 10 μg/ml aprotonin, 1 μg/ml leupeptin, 1 μg/ml pepstatin, 1 mM DTT) and 2-4 μg of the indicated antibody was added. Lysates were incubated on ice for 1-2 hours, 10 μl of Protein A or G beads were added, and lysates were left to incubate with gentle rotation for an additional 1 hour at 4° C. The immunoprecipitate was then washed 3 times with 2×Pull-Down Buffer, 1× with kinase buffer without ATP and subjected to a kinase assay as described in Example 2. […]

Test [3] deals with T1, IKK signalsome. In words: Phosphorylation of synthetic peptides by the IKK signalsome (immunokinase assay). Format: biochemical. Particulars: peptide 100 μM; for phosphorylation of peptide by IKK signalsome: γ-[32P]-ATP, one hour at room temperature. The procedure:
FIG. 9A is an autoradiogram depicting the results of an immunokinase assay in which peptides are phosphorylated by the IKK signalsome. In the top panel, IκBα(21-41) peptides that were unphosphorylated or chemically phosphorylated on either Ser-32 or Ser-36 were incubated with the IKK signalsome in the presence of γ-[^32P]-ATP.
Phosphorylation of these peptides (100 μM) was performed using a kinase reaction as described above. Reactions were for one hour at room temperature and were terminated by the addition of SDS-PAGE loading buffer. SDS-PAGE with a 16% Tris/tricine gel (Novex, San Diego, Calif.) or a 4-20% Tris/glycine gel (Novex, San Diego, Calif.) was used to characterize the reaction products. Gels were washed, dried in vacuo, and exposed to autoradiographic film.

For test [4], the system named is RelA translocation in HeLa cells. In words: RelA nuclear translocation in transiently transfected HeLa cells (immunofluorescence). The test is classed as cell-based, human. The method, then:
HeLa cells were transiently transfected with either HA-tagged IKK-1 K44 to M mutant (14B) or Flag-tagged IKK-2 K44 to M mutant (14C) expression vectors. 36 hours post-transfection cells were either not stimulated (Unstim) or TNFα-stimulated (20 ng/ml) for 30 min (TNFα), as indicated to the right of the figure. Cells were then subjected to immunofluorescence staining using anti-HA of anti-Flag antibodies to visualize expression of IKK-1 K44 to M or IKK-2 K44 to M, respectively. Stimulus-dependent translocation of Rel A was monitored using anti-Rel A antibodies. Antibodies used are indicated to the top of the figure. IKK mutant transfected is indicated to the left of the figure.
For these studies, HeLa cells were transiently transfected with either HA-tagged IKK-1 or Flag-tagged IKK-2. Cells were fixed for 30 minutes with methanol. For immunofluorescence staining, the cells were incubated sequentially with primary antibody in PBS containing 10% donkey serum and 0.25% Triton X-100 for 2 hours followed by fluorescein-conjugated or Texas red-conjugated secondary antibody (Jackson Immunoresearch Laboratories, Inc., West Grove, Pa.; used at 1:500 dilution) for 1 hour at room temperature. The coverslips were rinsed and coverslipped with Vectashield (Vector Laboratories, Burlingame, Calif.) before scoring and photographing representative fields. […]

“Also recorded” adds a separate entry of the source. Square brackets hold non-standard residues; d marks the D form. Ends that are not written are not given here. Peptide text beside a SMILES is read from it. pS = N[C@@H](COP(=O)(O)O)C(=O)O

T1 sequence (O15111 whole entry): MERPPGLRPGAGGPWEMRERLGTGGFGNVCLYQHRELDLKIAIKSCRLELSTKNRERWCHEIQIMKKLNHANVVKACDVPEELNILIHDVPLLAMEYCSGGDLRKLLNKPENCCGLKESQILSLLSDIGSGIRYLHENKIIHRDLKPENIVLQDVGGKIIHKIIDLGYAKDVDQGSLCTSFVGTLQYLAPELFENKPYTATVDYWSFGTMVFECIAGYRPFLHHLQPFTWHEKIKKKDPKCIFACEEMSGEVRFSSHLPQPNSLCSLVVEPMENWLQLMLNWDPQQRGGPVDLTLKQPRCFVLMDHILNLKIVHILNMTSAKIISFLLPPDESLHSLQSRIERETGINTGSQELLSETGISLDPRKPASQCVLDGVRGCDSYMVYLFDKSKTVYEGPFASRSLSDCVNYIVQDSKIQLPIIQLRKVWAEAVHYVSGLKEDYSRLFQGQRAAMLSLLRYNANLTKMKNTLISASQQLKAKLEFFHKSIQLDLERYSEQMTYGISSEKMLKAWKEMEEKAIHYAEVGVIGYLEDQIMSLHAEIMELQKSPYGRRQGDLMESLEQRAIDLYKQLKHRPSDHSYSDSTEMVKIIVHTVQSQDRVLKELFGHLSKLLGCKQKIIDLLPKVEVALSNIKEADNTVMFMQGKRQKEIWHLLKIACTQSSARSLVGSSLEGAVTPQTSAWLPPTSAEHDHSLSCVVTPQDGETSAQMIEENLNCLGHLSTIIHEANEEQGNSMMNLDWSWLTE
T1 sequence (O14920 whole entry): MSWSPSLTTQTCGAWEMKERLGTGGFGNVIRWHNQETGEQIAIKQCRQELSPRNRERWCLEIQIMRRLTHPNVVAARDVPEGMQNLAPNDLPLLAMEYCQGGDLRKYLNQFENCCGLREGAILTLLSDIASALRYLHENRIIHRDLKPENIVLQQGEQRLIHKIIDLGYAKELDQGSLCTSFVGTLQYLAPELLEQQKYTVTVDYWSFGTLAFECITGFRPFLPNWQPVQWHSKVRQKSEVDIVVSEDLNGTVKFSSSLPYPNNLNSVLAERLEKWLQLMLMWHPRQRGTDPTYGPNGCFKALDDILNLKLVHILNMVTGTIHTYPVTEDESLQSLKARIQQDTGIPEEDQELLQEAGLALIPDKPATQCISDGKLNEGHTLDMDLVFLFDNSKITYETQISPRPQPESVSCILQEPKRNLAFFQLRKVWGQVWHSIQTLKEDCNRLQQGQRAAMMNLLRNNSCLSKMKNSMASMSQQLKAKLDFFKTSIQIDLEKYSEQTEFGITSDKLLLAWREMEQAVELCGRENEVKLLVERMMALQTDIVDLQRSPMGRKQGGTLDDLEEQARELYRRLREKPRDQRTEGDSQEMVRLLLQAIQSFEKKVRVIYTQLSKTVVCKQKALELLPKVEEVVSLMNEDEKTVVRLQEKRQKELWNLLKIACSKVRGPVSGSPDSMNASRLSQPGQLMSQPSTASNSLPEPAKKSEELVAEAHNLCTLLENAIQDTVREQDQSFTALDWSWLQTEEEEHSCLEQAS
T1 sequence (Q9Y6K9 whole entry partner): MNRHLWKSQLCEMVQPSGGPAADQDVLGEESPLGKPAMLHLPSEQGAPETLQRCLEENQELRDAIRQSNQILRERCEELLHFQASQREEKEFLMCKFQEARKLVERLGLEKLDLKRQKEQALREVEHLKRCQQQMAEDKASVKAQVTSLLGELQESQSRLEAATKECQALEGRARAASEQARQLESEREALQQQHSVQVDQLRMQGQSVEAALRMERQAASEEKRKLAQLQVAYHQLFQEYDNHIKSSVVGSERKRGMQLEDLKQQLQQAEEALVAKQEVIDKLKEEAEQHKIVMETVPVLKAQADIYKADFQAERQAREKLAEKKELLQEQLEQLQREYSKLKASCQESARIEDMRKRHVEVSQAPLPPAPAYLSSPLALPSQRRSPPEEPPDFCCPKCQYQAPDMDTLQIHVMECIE

Broadly, the Ki is the equilibrium dissociation constant of an inhibitor or competing ligand from its target. As for `CSCC[C@H](NC(=O)[C@H](COP(=O)(O)O)NC(=O)[C@H](CC(=O)O)NC(=O)[C@H](CC(C)C)NC(=O)CNC(=O)[C@H](COP(=O)(O)O)NC(=O)[C@H](CC(=O)O)NC(=O)[C@H](Cc1c[nH]cn1)NC(=O)[C@H](CCCNC(=N)N)NC(=O)[C@H](CC(=O)O)NC(=O)[C@H](CC(=O)O)NC(=O)[C@H](CC(C)C)NC(=O)[C@H](CC(C)C)NC(=O)[C@H](CCCNC(=N)N)NC(=O)[C@H](CCC(=O)O)NC(=O)[C@H](CCCCN)NC(=O)[C@H](CCCCN)NC(=O)[C@@H](N)CS)C(=O)N[C@@H](CCCCN)C(=O)N[C@@H](CC(=O)O)C(=O)N[C@@H](CCC(=O)O)C(=O)N[C@@H](CCC(=O)O)C(=O)O` [IκBα(21-41) peptide P32,36] (H-CKKERLLDDRHD[pS]GLD[pS]MKDEE-OH), in test [1] (Dixon analysis, read-out: Ki (product inhibition of GST-IκBα (1-54) phosphorylation)), the Ki was 14 µM. Consider `Cc1ccc(S(=O)(=O)N[C@@H](Cc2ccccc2)C(=O)CCl)cc1` [TPCK], for which the “IKK signalsome activity in treated cells” value in test [2] was “inhibited; also recorded: blocked”. For “CKKERLLDDRHDSGLDSMKDEE [IκBα (21-41) peptide]”, the “inhibition of IKK signalsome kinase (phosphorylation of GST-IκBα (1-54))” value (shortened to “inhibition of IKK signalsome kinase”) in test [1] is reported as “less effective inhibitors”. In addition, the “phosphorylation of peptide by IKK signalsome” value (shortened to “phosphorylation of peptide”) in test [3] was “capable of phosphorylating”. With CKKERLLDDRHDTGLDTMKDEE, in test [3], the “phosphorylation by the signalsome, fold less well than the wild-type serine-containing peptide” value is given as “at least 10 fold”. With CPTNSALNYLKSPITTSPS [MKP-1 peptide], the “phosphorylation of peptide” value in test [3] was “did not phosphorylate”. Take “DLTGGPEVAT(PO3)PESEEAFLP [c-Fos(222-241)]”: the “inhibition of IKK signalsome kinase” value is on record as “does not function as an inhibitor” in test [1], “not” in test [1] (listed as c-Fos phosphopeptide) and “not” in test [1] (listed as c-fos phosphopeptide). Further, the “phosphorylation of peptide” value in test [3] is “did not function as a signalsome substrate”; in test [3] (listed as c-Fos phosphopeptide) it was “did not phosphorylate”. Regarding “singly-phosphorylated IκBα peptides: two IκBα (21-41) peptides, free serine at position 32 or 36 and phosphoserine at the other position (KKERLLDDRHDSGLDSMKDEE; not fully specified (N-terminus); also: pS at S32 or S36, free Ser at the other (two peptides); UniProt P25963 21-41, looked up, fragment)”, the “inhibition of IKK signalsome kinase” value in test [1] is listed as “less effective inhibitors”.

B1: IKK-2 mutant: Flag-tagged kinase-inactive version (K44 to M) of IKK-2 (protein, UniProt O14920 1-756, looked up, variant K44M)
Inhibitor of nuclear factor …: MSWSPSLTTQTCGAWEMKERLGTGGFGNVIRWHNQETGEQIAIMQCRQELSPRNRERWCLEIQIMRRLTHPNVVAARDVPEGMQNLAPNDLPLLAMEYCQGGDLRKYLNQFENCCGLREGAILTLLSDIASALRYLHENRIIHRDLKPENIVLQQGEQRLIHKIIDLGYAKELDQGSLCTSFVGTLQYLAPELLEQQKYTVTVDYWSFGTLAFECITGFRPFLPNWQPVQWHSKVRQKSEVDIVVSEDLNGTVKFSSSLPYPNNLNSVLAERLEKWLQLMLMWHPRQRGTDPTYGPNGCFKALDDILNLKLVHILNMVTGTIHTYPVTEDESLQSLKARIQQDTGIPEEDQELLQEAGLALIPDKPATQCISDGKLNEGHTLDMDLVFLFDNSKITYETQISPRPQPESVSCILQEPKRNLAFFQLRKVWGQVWHSIQTLKEDCNRLQQGQRAAMMNLLRNNSCLSKMKNSMASMSQQLKAKLDFFKTSIQIDLEKYSEQTEFGITSDKLLLAWREMEQAVELCGRENEVKLLVERMMALQTDIVDLQRSPMGRKQGGTLDDLEEQARELYRRLREKPRDQRTEGDSQEMVRLLLQAIQSFEKKVRVIYTQLSKTVVCKQKALELLPKVEEVVSLMNEDEKTVVRLQEKRQKELWNLLKIACSKVRGPVSGSPDSMNASRLSQPGQLMSQPSTASNSLPEPAKKSEELVAEAHNLCTLLENAIQDTVREQDQSFTALDWSWLQTEEEEHSCLEQAS
modifications: Flag tag
For B1, the “inhibition of RelA nuclear translocation” value in test [4] (TNFα-stimulated (20 ng/ml, 30 min) HeLa cells, 36 hours post-transfection) is “striking and complete”. Besides, the “effect on subcellular localization of RelA” value in test [4] (unstimulated HeLa cells) is on record as “no effect”.
